Measured values: patent US7528205B2, “Photo radical generator, photo sensitive resin composition and article” (Dai Nippon Printing Co., Ltd., priority 2003, dated 2009)
Read-outs that look alike come from different tables or passages of the source.

Key:
[1] = Evaluation 1 of curability (coating layer with trifunctional acrylate, UV exposure, no hydrogen donor); settings: for Reaction rate (decrement of double bond): nitrogen; for Compatibility with M305: imide part/double bond 1/50
Experimental: (§1) Using a trifunctional acrylate (product name; M-305, manufactured by Toagosei Co., Ltd.) as polyfunctional monomers, the compounds 1 to 14, the comparative compounds 2 and 3 and a photoradical generator Irgacure 907 (product name; manufactured by Ciba Specialty Chemicals) were mixed with each polyfunctional monomer to prepare each THF solution of each photoradical generator.
(§2) The mixing was performed so that a ratio of the photoradical generator to the polyfunctional monomer is such that number of imide part of each of the compounds 1 to 14 and the comparative compounds 2 and 3 with respect to number of double bond of the polyfunctional monomer is 1/50 (number of imide part/number of polyfunctional monomer) or, in the case of Irgacure, number of the molecule with respect to number of double bond of the polyfunctional monomer is 1/50 (number of Irgacure 907/number of polyfunctional monomer).
(§3) Each solution was applied by spin coating to a glass substrate on which chromium was sputtered to obtain coating layers. Also, a layer without initiator component or comparative compounds and only containing trifunctional acrylate was formed as a blank.
(§4) A decrement of the peak at 810 cm^−1 was recorded with time by using an infrared spectrometer (product name: FTS6000; manufactured by BIO RAD) while exposing the above coating layer to ultraviolet rays, to confirm the degree of the disappearance of a double bond. The atmosphere around the sample during measurement was replaced with nitrogen. As the UV exposure apparatus, UV Spot Cure SP-III type (standard reflecting mirror type) manufactured by Ushio Inc. was used and as the UV lamp, USH-255BY (manufactured by Ushio Inc.) was used.

[2] = Evaluation of transparency (transmittance of cured coating layer); assay type: physicochemical
Experimental: Using a trifunctional acrylate (product name; M305, manufactured by Toagosei Co., Ltd.) as polyfunctional monomers, each of the compound 1, a combination of the compound 1 and triethanolamine of the same number of mol and a photoradical generator Irgacure 907 (Irg907) were mixed to prepare each THF solution in the same ratio as the Evaluation of curability. Each solution was applied by spin coating to a glass substrate and heated on a 50° C. hot plate for one minute. Then, the substrate was exposed to light from a high pressure mercury lamp at an intensity of 2,000 mJ/cm^2 based on h-rays by using a hand-operated exposure apparatus (MA-1200, manufactured by Dainippon Screen Mfg. Co., Ltd.), to obtain a coating layer having a thickness of 4.2±0.05 μm. The transmittance of each coating layer was measured by a spectrometer (UV-2550 (PC)S GLP; manufactured by Shimadzu Corporation).

[3] = Evaluation of ultraviolet absorption; assay type: physicochemical; settings: for ultraviolet absorption bottom edge / ultraviolet absorption maximum wavelength: acetonitrile solution, 1.0×10^−5 mol/L
Experimental: Using an acetonitrile solution containing 1.0×10^−5 mol/L of each of the compounds 1 and 15, each ultraviolet absorption spectrum was measured.

Solubility test = assay type: physicochemical; settings: for solubility at 3 h: organic solvent or mixture, thermodynamic from solid
Experimental: As for the compound 1 and the comparative compound 3, a solubility test was performed respectively. Each sample was added to each solvent or monomer so as to be 0.5 mol/L at 20° C. After radiating ultrasonic wave for 3 hours, one with a precipitate was concluded as “0” and one without a precipitate was concluded as “x”.

[4] = Evaluation 2 of curability (triethanolamine added as hydrogen donor)
Experimental: as §1, §2, §3, §4
In order to confirm whether or not the seven-membered ring imide structure-containing group was a hydrogen-drawing type radical generator, triethanolamine was added to THF solutions containing each of the compositions 1 to 14 used in the aforementioned Evaluation 1 of curability and trifunctional acrylate M305, coating layers were formed in the same manner as in the aforementioned Evaluation 1 of curability, and evaluated similarly. As comparative examples, each of the comparative compounds 1 and 3 was used.

[5] = Evaluation of heat resistance (thermogravimetry, 5% reduction in weight temperature); assay type: physicochemical; settings: for 5% heat decomposition temperature: temperature rise rate 10° C./min, nitrogen atmosphere
Experimental: Herein, the 5% reduction in weight temperature means a temperature at which the weight of a sample is reduced […] when a decrement of weight is measured using a thermogravimetric analyzer according to the same method as in the examples of the present invention as will be explained later. Similarly, the 10% reduction in weight temperature means a temperature at which the weight of a sample is reduced […].
Using a differential type differential thermal balance (product name: TG8120; manufactured by Rigaku Corporation), the 5% reduction in weight temperature of each of the compounds 1 to 15 was measured at a temperature rise rate of 10° C./min in a nitrogen atmosphere. As comparative examples, the comparative compounds 2 and 3 and a self-cleavage type photoradical generator Irgacure 907 (trademark; manufactured by Ciba Specialty Chemicals) were similarly measured.

[6] = 0.5 mol/L at 20° C., ultrasonic wave 3 hours

| SMILES | Reaction rate (decrement of double bond) ([1]; Exposure 50 mJ) [%] | Reaction rate (decrement of double bond) ([1]; Exposure 100 mJ) [%] | Reaction rate (decrement of double bond) ([1]; Exposure 400 mJ) [%] | Compatibility with M305 [1] | ultraviolet absorption bottom edge [3] | ultraviolet absorption maximum wavelength [3] | Solubility in Acetone (Solubility test; [6]) | Solubility in Chloroform (Solubility test; [6]) | Solubility in Dimethylformamide (Solubility test; [6]) | Solubility in Tetrahydrofuran (Solubility test; [6]) | Compatibility with M305 [4] | Reaction rate (decrement of double bond) ([4]; Exposure 50 mJ) [%] | Reaction rate (decrement of double bond) ([4]; Exposure 100 mJ) [%] | Reaction rate (decrement of double bond) ([4]; Exposure 400 mJ) [%] | 5% heat decomposition temperature [5] [°C] | other results |
| --- | --- | --- | --- | --- | --- | --- | --- | --- | --- | --- | --- | --- | --- | --- | --- | --- |
| COCCn1c(=O)c2ccccc2c2ccccc2c1=O [Compound 1] | 0.3 | 0.5 | 1.1 | ∘ | about 320 nm | about 240 nm | ∘ | ∘ | ∘ | ∘ | ∘ | 17.3 | 23.6 | 36.6 | 224 | transmittance of cured layer ([2]; M305 coating layer 4.2±0.05 μm, 2,000 mJ/cm^2, compared to Irg907): high in transmittance with respect to the light of 410 nm or less; transmittance of cured layer ([2]; triethanolamine of the same number of mol added, M305 coating layer 4.2±0.05 μm): almost same in transmittance as in the case of only the compound 1; solubility, comparison in words (Solubility test): superior in solubility to the comparative compound 3; Solubility in Ethyl acetate (Solubility test; [6]): ∘; Solubility in Ethyl lactate (Solubility test; [6]): ∘; Solubility in Methyl acrylate (Solubility test; [6]): ∘; Solubility in Pentaerythritol triacrylate (M305) (Solubility test; [6]): ∘; Solubility in Propylene glycol monoethyl ether acetate (Solubility test; [6]): ∘ |
| COCCn1c(=O)c2cc([N+](=O)[O-])ccc2c2ccc([N+](=O)[O-])cc2c1=O [Compound 15] |  |  |  |  | about 320 nm | about 240 nm |  |  |  |  |  |  |  |  | 280 | absorption at 365 nm (emitting wavelength of high pressure mercury lamp) [3]: has absorption at a wavelength of 365 nm; improvement of heat decomposition temperature in comparison with the compound 1 [5]: ≥ 50 °C |
| COCCN1C(=O)c2cccc3cccc(c23)C1=O [compound 3, reference compound] | 1.0 | 2.5 | 26.6 | ∘ |  |  | ∘ | ∘ | ∘ | ∘ | ∘ | 3.3 | 5.4 | 11.1 | 229 | solubility at 3 h (Solubility test; ethyl acetate, 0.5 mol/L at 20° C., ultrasonic wave 3 hours, read-out: Solubility in Ethyl acetate): < 500 mM; solubility at 3 h (Solubility test; ethyl lactate, 0.5 mol/L at 20° C., ultrasonic wave 3 hours, read-out: Solubility in Ethyl lactate): < 500 mM; solubility at 3 h (Solubility test; methyl acrylate, 0.5 mol/L at 20° C., ultrasonic wave 3 hours, read-out: Solubility in Methyl acrylate): < 500 mM; solubility at 3 h (Solubility test; pentaerythritol triacrylate (M305), 0.5 mol/L at 20° C., ultrasonic wave 3 hours, read-out: Solubility in Pentaerythritol triacrylate (M305)): < 500 mM; solubility at 3 h (Solubility test; propylene glycol monoethyl ether acetate, 0.5 mol/L at 20° C., ultrasonic wave 3 hours, read-out: Solubility in Propylene glycol monoethyl ether acetate): < 500 mM |
